Laboratory results from PubChem BioAssay (NCI).
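Interpolation was linear, between the two tested concentrations surrounding the appropriate level; five concentrations were tested over 48 hours in 96-well plates. TGI marks complete inhibition of growth.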

Key:
Experiment in all cases: NCI tumour cell line growth inhibition, 48 h
OVCAR-5 ovarian = system: OVCAR-5 ovarian
PC-3 prostate = system: PC-3 prostate
UO-31 renal = system: UO-31 renal
KM12 colon = system: KM12 colon
OVCAR-4 ovarian = system: OVCAR-4 ovarian
HCT-15 colon = system: HCT-15 colon
SR leukemia = system: SR leukemia
A549 NSCLC = system: A549 NSCLC
HL-60(TB) leukemia = system: HL-60(TB) leukemia
CAKI-1 renal = system: CAKI-1 renal

SMILES	TGI (OVCAR-5 ovarian) [µM]	TGI (PC-3 prostate) [µM]	TGI (UO-31 renal) [µM]	TGI (KM12 colon) [µM]	TGI (OVCAR-4 ovarian) [µM]	TGI (HCT-15 colon) [µM]	TGI (SR leukemia) [µM]	TGI (A549 NSCLC) [µM]	TGI (HL-60(TB) leukemia) [µM]	TGI (CAKI-1 renal) [µM]
O=C(Nc1ccccn1)c1cc2c(cc1Cl)Sc1nccn1S2(=O)=O	> 100	> 100	94.9	> 100	> 100	> 100	> 100	> 100	74.3	> 100
COc1ccc(/C=C/C(=O)N[C@@H]2C(=O)N3[C@@H]2SC(C)(C)[C@@H]3C(=O)O)cc1OC	> 100	> 100	> 100	> 100	> 100	> 100	> 100	> 100	> 100	> 100
C[C@@H](Br)[C@@H]1CC[C@H]2c3[nH]c4ccccc4c3CCN2C1	> 100	75.4	> 100	28.5	> 100	48.1	38.3	> 100	39.5	52.4
FC(F)(F)c1ccc(N=NN2CCCC2)cc1	> 100	> 100	> 100	65.2	> 100	> 100	> 100	> 100	> 100	> 100
CCN(CC)C(=O)CCNC(C)Cc1c[nH]c2ccccc12 (stereo not given)	> 100	> 100	> 100	> 100	> 100	> 100	> 100	> 100	> 100	> 100
CCOc1ccnc2c(OC)c(C)c3nc4ccccc4nc3c12	> 100	> 100	> 100	> 100	> 100	> 100	> 100	> 100	> 100	> 100
O=c1oc2ccc([N+](=O)[O-])cc2cc1-c1csc(-c2ccccc2)n1	> 100	> 100	> 100	> 100	> 100	> 100	> 100	> 100	> 100	> 100
COc1cc(CNC(=O)CCCCCCCCCCSC#N)ccc1O	85.8	27.5	21.9	19.3	57.6	23	91.5	42.1	28.9	36.8
COc1ccc(/C=C2/C(=O)C(c3ccccc3)N(c3ccccc3)C2=O)cc1OC (stereo not given)	> 10	> 10	> 10	> 10	> 10	> 10	> 10	> 10	> 10	> 10
CCOC(=O)CCNC(=O)c1cc(C)cc2c1Oc1c(cc(C)cc1C(=O)NCCC(=O)OCC)S2	> 100	> 100	> 100	> 100	> 100	> 100	> 100	> 100	> 100	> 100
ClC1(Cl)C2CCOC21n1cnc2ccccc21 (stereo not given)	> 100	> 100	> 100	> 100	> 100	> 100	> 100	> 100	> 100	> 100
O=C1CSC2(CC(/C=C/c3ccccc3[N+](=O)[O-])=NN2c2cccc(S(=O)(=O)O)c2)N1c1nc2ccccc2s1 (stereo not given)	39.9	35.4	25.1	27	35.3	35	63.1	52.9	63.7	> 75
CC(=O)Nc1ccc2cc3c(nc2n1)c1cccnc1n3S(=O)(=O)c1ccccc1	> 100	> 100	> 100	> 100	> 100	> 100	> 100	> 100	> 100	> 100
CC1=NN(c2cccc(S(=O)(=O)O)c2)C2(C1)SCC(=O)N2c1nc2ccccc2s1 (stereo not given)	> 100	> 100	> 100	> 100	> 100	> 100	> 100	> 100	> 100	> 100
C=C(C)[C@H]1C=C[C@@H](OC(C)=O)[C@@]2(COC(C)=O)[C@H](OC(=O)CCC)[C@H]3[C@@H](OC(C)=O)[C@@H](C)C[C@]3(O)C(=O)[C@@](C)(OC(C)=O)[C@H]12	> 100	> 100	> 100	> 100	> 100	> 100	> 100	> 100	> 100	> 100
O=C1N(c2ccccc2)N=C2c3ccncc3C3=NN(c4ccccc4)C(=O)C123 (stereo not given)	> 100	> 100	> 100	> 100	> 100	> 100	> 100	> 100	> 100	> 100
O=[N+]([O-])C(=C(\Cl)NCCO)/C(Cl)=C(/Cl)Br	13.4	7.68	10.6	17.6	3.01	2.78	5.25	21.1	2.48	1.85
CCOC(=O)C1=CN(Cc2ccccc2)C2ON=C(c3ccc(Cl)cc3)C2C1 (stereo not given)	> 68.7	> 53.5	52.5	> 66.5	> 77.8	> 47.2	97.4	> 59.6	> 47.1	> 85.1
